Data as given in patent publication US20240409585A1, “MACROCYCLIC IMMUNOMODULATORS” (priority 2021, published 2024).
One block for each compound: values may come before it. Bridge positions count the residues as written; N and C are the ends. Square brackets hold non-standard residues; d marks the D form. Peptide text beside a SMILES is read from it. * marks the point of attachment. ξ: configuration not given here. Phe(4-CH2NH2) = NCc1ccc(C[C@H](N)C(=O)O)cc1; Bip = N[C@@H](Cc1ccc(-c2ccccc2)cc1)C(=O)O; Phe(3-Me) = Cc1cccc(C[C@H](N)C(=O)O)c1; Val(3-OH) = CC(C)(O)[C@H](N)C(=O)O; 3Pal = N[C@@H](Cc1cccnc1)C(=O)O; 4Pal = N[C@@H](Cc1ccncc1)C(=O)O; 2Thi = N[C@@H](Cc1cccs1)C(=O)O; Cha = N[C@@H](CC1CCCCC1)C(=O)O; Cit = NC(=O)NCCC[C@H](N)C(=O)O; Ile(3ξ) = CCC(C)[C@H](N)C(=O)O; Thr(3ξ) = CC(O)[C@H](N)C(=O)O; dOrn = NCCC[C@@H](N)C(=O)O; Carboxymethyl = O=C(O)C*; NMeA = CN[C@@H](C)C(=O)O; Dab = NCC[C@H](N)C(=O)O; Dap = NC[C@H](N)C(=O)O

Biological target: T1, PE-labeled human PD-L1-Ig binding to Jurkat cell line over-expressing human PD-1 (Jurkat-PD-1) (Homo sapiens, UniProt Q15116)
T1 construct: expressed in transfected cells; host or cells: Jurkat
Experiment: Jurkat-PD-1 Cell Binding High-Content Screening Assay (CBA): Method 1
Details: Jurkat-hPD-1 cells, PE-labeled PD-L1-Ig 20 nM final; read-out: Jurkat HPDL1 PD1 IC50 (uM) (Method 1)

T1 sequence (Q15116 25-288): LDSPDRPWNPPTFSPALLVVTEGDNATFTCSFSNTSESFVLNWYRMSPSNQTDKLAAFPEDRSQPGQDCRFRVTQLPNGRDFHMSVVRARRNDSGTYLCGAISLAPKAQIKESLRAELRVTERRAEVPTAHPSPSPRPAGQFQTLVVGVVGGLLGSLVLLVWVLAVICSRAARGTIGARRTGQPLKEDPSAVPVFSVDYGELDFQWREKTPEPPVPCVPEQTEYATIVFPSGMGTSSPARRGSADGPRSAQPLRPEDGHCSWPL

Compound: CC(C)C[C@@H]1NC(=O)[C@H](Cc2c[nH]c3ccccc23)NC(=O)[C@H](CC(=O)O)NC(=O)[C@H](Cc2ccc(OCC(=O)O)cc2)NC(=O)[C@H](CC(N)=O)NC(=O)CSC[C@@H](C(=O)N[C@@H](C)C(N)=O)NC(=O)[C@H](CO)NC(=O)[C@H](C(C)C)NC(=O)[C@H](CC(C)C)NC(=O)[C@H](CC(N)=O)NC(=O)[C@@H](C)NC(=O)[C@H](C)N(C)C(=O)[C@H](C(C)C)NC(=O)[C@H](Cc2ccc(-c3ccccc3)cc2)NC1=O [Compound 1769] ({CH2CO}-NY(Carboxymethyl)DWL[Bip]V[NMeA][dA]NLVSCA-NH2; thioether N-14)
IC50: 0.04 µM

Compound: CC(C)C[C@@H]1NC(=O)[C@H](CCN)NC(=O)[C@@H](CC(C)C)NC(=O)[C@H](C)N(C)C(=O)[C@H](CCCNC(N)=O)NC(=O)[C@H](Cc2ccc(-c3ccccc3)cc2)NC(=O)[C@H](C(C)C)NC(=O)[C@H](Cc2c[nH]c3ccccc23)NC(=O)[C@H](CC(=O)O)NC(=O)[C@H](Cc2ccc(O)cc2)NC(=O)[C@H](CCCCN)NC(=O)CSC[C@@H](C(=O)N[C@@H](C)C(N)=O)NC(=O)[C@H]([C@@H](C)O)NC(=O)[C@H](C(C)C)NC1=O [Compound 1348] ({CH2CO}-KYDWV[Bip][Cit][NMeA][dL][Dab]LVTCA-NH2; thioether N-14)
IC50: 0.05 µM

Compound: CC(C)C[C@@H]1NC(=O)[C@H](Cc2c[nH]c3ccccc23)NC(=O)[C@H](CC(=O)O)NC(=O)[C@H](Cc2ccc(O)cc2)NC(=O)[C@H](Cc2ccccc2)NC(=O)CSC[C@@H](C(=O)N[C@@H](C)C(N)=O)NC(=O)[C@H](CO)NC(=O)[C@H](C(C)C)NC(=O)[C@H](CC(C)C)NC(=O)[C@H](CCCCN)NC(=O)[C@@H](C)NC(=O)[C@H](C)N(C)C(=O)[C@H](CCC(=O)O)NC(=O)[C@H](Cc2ccc(-c3ccccc3)cc2)NC1=O [Compound 1767] ({CH2CO}-FYDWL[Bip]E[NMeA][dA]KLVSCA-NH2; thioether N-14)
IC50: 0.04 µM

Compound: CCC(C)[C@@H]1NC(=O)[C@H](Cc2ccc(-c3ccccc3)cc2)NC(=O)[C@H](C(C)C)NC(=O)[C@H](Cc2c[nH]c3ccccc23)NC(=O)[C@H](CC(=O)O)NC(=O)[C@H](Cc2ccc(O)cc2)NC(=O)[C@H](Cc2cccs2)NC(=O)CSC[C@@H](C(=O)N[C@@H](CCCNC(=N)N)C(N)=O)NC(=O)[C@H](C(C)O)NC(=O)[C@H](C(C)(C)O)NC(=O)[C@H](CC2CCCCC2)NC(=O)[C@H](CC(N)=O)NC(=O)[C@@H](CC(C)C)NC(=O)[C@H](C)N(C)C1=O (stereo partly drawn) [Compound 2172] ({CH2CO}-[2Thi]YDWV[Bip][Ile(3ξ)][NMeA][dL]N[Cha][Val(3-OH)][Thr(3ξ)]CR-NH2; thioether N-14)
IC50: 0.08 µM

Further compounds by falling IC50, results first:

IC50: 0.93 µM
Compound: CC(C)C[C@@H]1NC(=O)[C@H](CCN)NC(=O)[C@@H](CC(C)C)NC(=O)[C@H](C)N(C)C(=O)[C@H](CCCNC(=N)N)NC(=O)[C@H](Cc2ccc(-c3ccccc3)cc2)NC(=O)[C@H](C(C)C)NC(=O)[C@H](Cc2c[nH]c3ccccc23)NC(=O)[C@H](CC(N)=O)NC(=O)[C@H](Cc2ccc(O)cc2)NC(=O)[C@H](CC(N)=O)NC(=O)CSC[C@@H](C(=O)N[C@@H](C)C(N)=O)NC(=O)[C@H]([C@@H](C)O)NC(=O)[C@H](C(C)C)NC1=O [Compound 1186] ({CH2CO}-NYNWV[Bip]R[NMeA][dL][Dab]LVTCA-NH2; thioether N-14)

IC50: 0.19 µM
Compound: CC(C)C[C@@H]1NC(=O)[C@H](Cc2c[nH]c3ccccc23)NC(=O)[C@H](CC(=O)O)NC(=O)[C@H](Cc2ccc(O)cc2)NC(=O)[C@H](Cc2ccccc2)NC(=O)CSC[C@@H](C(=O)N[C@@H](C)C(N)=O)NC(=O)[C@H](CO)NC(=O)[C@H](C(C)C)NC(=O)[C@H](CC(C)C)NC(=O)[C@H](CC(N)=O)NC(=O)[C@@H](CCCN)NC(=O)[C@H](C)N(C)C(=O)[C@H](C(C)C)NC(=O)[C@H](Cc2ccc(-c3ccccc3)cc2)NC1=O [Compound 1802] ({CH2CO}-FYDWL[Bip]V[NMeA][dOrn]NLVSCA-NH2; thioether N-14)

IC50: 0.11 µM
Compound: CC(C)C[C@@H]1NC(=O)CSC[C@@H](C(=O)N[C@@H](C)C(N)=O)NC(=O)[C@H]([C@@H](C)O)NC(=O)[C@H](C(C)C)NC(=O)[C@H](CC(C)C)NC(=O)[C@H](CCCNC(=N)N)NC(=O)[C@@H](CC(C)C)NC(=O)[C@H](C)N(C)C(=O)[C@H](CCCNC(=N)N)NC(=O)[C@H](Cc2ccc(-c3ccccc3)cc2)NC(=O)[C@H](C(C)C)NC(=O)[C@H](Cc2c[nH]c3ccccc23)NC(=O)[C@H](CC(=O)O)NC(=O)[C@H](Cc2ccc(O)cc2)NC1=O [Compound 1050] ({CH2CO}-LYDWV[Bip]R[NMeA][dL]RLVTCA-NH2; thioether N-14)

IC50: 0.11 µM
Compound: CC(C)C[C@@H]1NC(=O)[C@H](CCCNC(=N)N)NC(=O)[C@@H](Cc2ccccc2)NC(=O)[C@H](C)N(C)C(=O)[C@H](CCCNC(=N)N)NC(=O)[C@H](Cc2ccc(-c3ccccc3)cc2)NC(=O)[C@H](C(C)C)NC(=O)[C@H](Cc2c[nH]c3ccccc23)NC(=O)[C@H](CC(=O)O)NC(=O)[C@H](Cc2ccc(O)cc2)NC(=O)[C@H](Cc2cccnc2)NC(=O)CSC[C@@H](C(=O)N[C@@H](C)C(N)=O)NC(=O)[C@H]([C@@H](C)O)NC(=O)[C@H](C(C)C)NC1=O [Compound 1161] ({CH2CO}-[3Pal]YDWV[Bip]R[NMeA][dF]RLVTCA-NH2; thioether N-14)

IC50: 0.06 µM
Compound: CCC(C)[C@@H]1NC(=O)[C@H](Cc2ccc(-c3ccccc3)cc2)NC(=O)[C@H](C(C)C)NC(=O)[C@H](Cc2c[nH]c3ccccc23)NC(=O)[C@H](CC(=O)O)NC(=O)[C@H](Cc2ccc(O)cc2)NC(=O)[C@H](Cc2ccc(CN)cc2)NC(=O)CSC[C@@H](C(=O)N[C@@H](C)C(N)=O)NC(=O)[C@H](C(C)O)NC(=O)[C@H](C(C)C)NC(=O)[C@H](CC2CCCCC2)NC(=O)[C@H](CC(N)=O)NC(=O)[C@@H](CC(C)C)NC(=O)[C@H](C)N(C)C1=O (stereo partly drawn) [Compound 2047] ({CH2CO}-[Phe(4-CH2NH2)]YDWV[Bip][Ile(3ξ)][NMeA][dL]N[Cha]V[Thr(3ξ)]CA-NH2; thioether N-14)

IC50: 0.04 µM
Compound: CC(C)C[C@@H]1NC(=O)[C@H](CCCNC(=N)N)NC(=O)[C@@H](CC(C)C)NC(=O)[C@H](C)N(C)C(=O)[C@H](CCC(=O)O)NC(=O)[C@H](Cc2ccc(-c3ccccc3)cc2)NC(=O)[C@H](C(C)C)NC(=O)[C@H](Cc2c[nH]c3ccccc23)NC(=O)[C@H](CC(=O)O)NC(=O)[C@H](Cc2ccc(O)cc2)NC(=O)[C@H](Cc2ccccc2)NC(=O)CSC[C@@H](C(=O)N[C@@H](C)C(N)=O)NC(=O)[C@H]([C@@H](C)O)NC(=O)[C@H](C(C)C)NC1=O [Compound 1141] ({CH2CO}-FYDWV[Bip]E[NMeA][dL]RLVTCA-NH2; thioether N-14)

IC50: 0.01 µM
Compound: Cc1cccc(C[C@@H]2NC(=O)[C@H](CC(=O)O)NC(=O)[C@H](Cc3ccncc3)NC(=O)[C@H](CN)NC(=O)CSC[C@@H](C(N)=O)NC(=O)[C@H](CO)NC(=O)[C@H](C(C)C)NC(=O)[C@H](CC(C)C)NC(=O)[C@H](CC(N)=O)NC(=O)[C@@H](CC(C)C)NC(=O)[C@H](C)N(C)C(=O)[C@H](C(C)C)NC(=O)[C@H](Cc3ccc(-c4ccccc4)cc3)NC(=O)[C@H](CC(C)C)NC2=O)c1 [Compound 1598] ({CH2CO}-[Dap][4Pal]D[Phe(3-Me)]L[Bip]V[NMeA][dL]NLVSC-NH2; thioether N-14)
